Read-outs that look alike come from different tables or passages of the source.
Assay: determination of log P values by HPLC on a reversed-phase column (C18), EEC Directive 79/831 Annex V.A8
Assay type: physicochemical
Description: ^a) Note regarding the determination of the log P values and mass detection: The determination of the given log P values was carried out in accordance with EEC Directive 79/831 Annex V.A8 by HPLC (High Performance Liquid Chromatography) on a reversed-phase column (C18). […] Mass detection is via an Agilent MSD system. […] Mass detection is via an Agilent MSD system. The mass stated is the peak of the molecular ion+hydrogen [M+H]^+ (molecular ion=sum of the masses of the most abundant natural isotopes of which the molecule consists). ^c) GC/MS (gas chromatography/mass spectrometry) on dimethylsilicone phase. 10 m DB-1, ID=0.18 mm, film thickness=0.4 μm; injector: 250° C., carrier gas flow rate: […] helium; detector: MSD: 280° C., FID: 320° C.; oven temperature: 50° C. (1 minute), 50° C.-320° C. ([…], 40° C./min), 320° C. (6.75 minutes); Kovacs Indices calibrated with alkane mixture.

[1] = reversed-phase C18 HPLC column (Zorbax Eclipse Plus C18); HPLC-MS method a): Zorbax Eclipse Plus C18, acetonitrile (0.1% formic acid) / water (0.09% formic acid), gradient 10% to 95% acetonitrile, 55° C., read-out: log P

| SMILES | chromatographic logP [1] | chromatographic logP |
| --- | --- | --- |
| Cc1cc(C(F)(C(F)(F)F)C(F)(F)F)cc(C(F)(F)F)c1-n1cccn1 [1-[4-(1,1,1,2,3,3,3-heptafluoropropan-2-yl)-2-methyl-6-(trifluoromethyl)phenyl]-1H-pyrazole] | 4.4 |  |
| CN(C(=O)c1cc(-c2cnn(-c3c(Br)cc(C(F)(C(F)(F)F)C(F)(F)F)cc3C(F)(F)F)c2)cnc1Cl)C1CC1 [5-{1-[2-bromo-4-(1,1,1,2,3,3,3-heptafluoropropan-2-yl)-6-(trifluoromethyl)phenyl]-1H-pyrazol-4-yl}-2-chloro-N-cyclopropyl-N-methylnicotinamide] | 4.28 |  |
| O=C(NC1CC1)c1cc(-c2cnn(-c3c(Cl)cc(C(F)(C(F)(F)F)C(F)(F)F)cc3OC(F)(F)F)c2)cnc1Cl [2-chloro-5-{1-[2-chloro-4-(1,1,1,2,3,3,3-heptafluoropropan-2-yl)-6-(trifluoromethoxy)phenyl]-1H-pyrazol-4-yl}-N-cyclopropylnicotinamide] | 4.28 |  |
| CN(C(=O)c1cc(-c2cnn(-c3c(Cl)cc(C(F)(C(F)(F)F)C(F)(F)F)cc3C(F)(F)F)c2)cnc1Cl)C1CC1 [2-Chloro-5-{1-[2-chloro-4-(1,1,1,2,3,3,3-heptafluoropropan-2-yl)-6-(trifluoromethyl)phenyl]-1H-pyrazol-4-yl}-N-cyclopropyl-N-methylnicotinamide] | 4.46 |  |
| FC(F)Oc1cc(C(F)(C(F)(F)F)C(F)(F)F)cc(Cl)c1-n1cc(I)cn1 [1-[2-chloro-6-(difluoromethoxy)-4-(1,1,1,2,3,3,3-heptafluoropropan-2-yl)phenyl]-4-iodo-1H-pyrazole] | 4.82 |  |
| Cc1cc(C(F)(C(F)(F)F)C(F)(F)F)cc(C)c1-n1cccn1 [1-[4-(1,1,1,2,3,3,3-heptafluoropropan-2-yl)-2,6-dimethylphenyl]-1H-pyrazole] | 4.3 |  |
| CC1(C)OB(c2cnc(Cl)c(C(=O)NC3CC3)c2)OC1(C)C [2-chloro-N-cyclopropyl-5-(4,4,5,5-tetramethyl-1,3,2-dioxaborolan-2-yl)nicotinamide] |  | 0.9 |
| FC(F)(F)C(F)(c1cc(Cl)c(-n2cc(Br)cn2)c(Cl)c1)C(F)(F)F [4-bromo-1-[2,6-dichloro-4-(1,1,1,2,3,3,3-heptafluoropropan-2-yl)phenyl]-1H-pyrazole] | 5.07 |  |
| FC(F)(F)C(F)(c1cc(Cl)c(-n2cc(I)cn2)c(Cl)c1)C(F)(F)F [1-[2,6-dichloro-4-(1,1,1,2,3,3,3-heptafluoropropan-2-yl)phenyl]-4-iodo-1H-pyrazole] | 5.17 |  |
| FC(F)(F)C(F)(c1cc(Cl)c(-n2cccn2)c(Cl)c1)C(F)(F)F [1-[2,6-dichloro-4-(1,1,1,2,3,3,3-heptafluoropropan-2-yl)phenyl]-1H-pyrazole] | 4.22 |  |
| FC(F)(F)c1cc(C(F)(C(F)(F)F)C(F)(F)F)cc(Br)c1-n1cc(I)cn1 [1-[2-bromo-4-(1,1,1,2,3,3,3-heptafluoropropan-2-yl)-6-(trifluoromethyl)phenyl]-4-iodo-1H-pyrazole] | 5.22 |  |
| FC(F)Oc1cc(C(F)(C(F)(F)F)C(F)(F)F)cc(Cl)c1-n1cccn1 [1-[2-chloro-6-(difluoromethoxy)-4-(1,1,1,2,3,3,3-heptafluoropropan-2-yl)phenyl]-1H-pyrazole] | 4.04 |  |

Next, values leading:

| chromatographic logP [1] | chromatographic logP | SMILES |
| --- | --- | --- |
| 4.38 |  | FC(F)(F)c1cc(C(F)(C(F)(F)F)C(F)(F)F)cc(Cl)c1-n1cccn1 [1-[2-chloro-4-(1,1,1,2,3,3,3-heptafluoropropan-2-yl)-6-(trifluoromethyl)phenyl]-1H-pyrazole] |
| 4.42 |  | FC(F)(F)c1cc(C(F)(C(F)(F)F)C(F)(F)F)cc(Br)c1-n1cccn1 [1-[2-bromo-4-(1,1,1,2,3,3,3-heptafluoropropan-2-yl)-6-(trifluoromethyl)phenyl]-1H-pyrazole] |
| 4.31 |  | CN(C(=O)c1cc(-c2cnn(-c3c(Cl)cc(C(F)(C(F)(F)F)C(F)(F)F)cc3Cl)c2)cnc1Cl)C1(C#N)CC1 [2-chloro-N-(1-cyanocyclopropyl)-5-{1-[2,6-dichloro-4-(1,1,1,2,3,3,3-heptafluoropropan-2-yl)phenyl]-1H-pyrazol-4-yl}-N-methylnicotinamide] |
| 5.19 |  | FC(F)(F)c1cc(C(F)(C(F)(F)F)C(F)(F)F)cc(Cl)c1-n1cc(I)cn1 [1-[2-chloro-4-(1,1,1,2,3,3,3-heptafluoropropan-2-yl)-6-(trifluoromethyl)phenyl]-4-iodo-1H-pyrazole] |
| 4.56 |  | CN(C(=O)c1cc(-c2cnn(-c3c(Cl)cc(C(F)(C(F)(F)F)C(F)(F)F)cc3OC(F)(F)F)c2)cnc1Cl)C1CC1 [2-Chloro-5-{1-[2-chloro-4-(1,1,1,2,3,3,3-heptafluoropropan-2-yl)-6-(trifluoromethoxy)phenyl]-1H-pyrazol-4-yl}-N-cyclopropyl-N-methylnicotinamide] |
| 4 |  | O=C(NC1CC1)c1cc(-c2cnn(-c3c(Cl)cc(C(F)(C(F)(F)F)C(F)(F)F)cc3C(F)(F)F)c2)cnc1Cl [2-Chloro-5-{1-[2-chloro-4-(1,1,1,2,3,3,3-heptafluoropropan-2-yl)-6-(trifluoromethyl)phenyl]-1H-pyrazol-4-yl}-N-cyclopropylnicotinamide] |
| 4.36 |  | CN(C(=O)c1cc(-c2cnn(-c3c(Cl)cc(C(F)(C(F)(F)F)C(F)(F)F)cc3Cl)c2)cnc1Cl)C1CC1 [2-Chloro-N-cyclopropyl-5-{1-[2,6-dichloro-4-(1,1,1,2,3,3,3-heptafluoropropan-2-yl)phenyl]-1H-pyrazol-4-yl}-N-methylnicotinamide] |
| 3.81 |  | N#CC1(NC(=O)c2cc(-c3cnn(-c4c(Cl)cc(C(F)(C(F)(F)F)C(F)(F)F)cc4Cl)c3)cnc2Cl)CC1 [2-Chloro-N-(1-cyanocyclopropyl)-5-{1-[2,6-dichloro-4-(1,1,1,2,3,3,3-heptafluoropropan-2-yl)phenyl]-1H-pyrazol-4-yl}nicotinamide] |
| 3.87 |  | Cc1cc(C(F)(C(F)(F)F)C(F)(F)F)cc(C)c1-n1cc(-c2cnc(Cl)c(C(=O)NC3(C#N)CC3)c2)cn1 [2-Chloro-N-(1-cyanocyclopropyl)-5-{1-[4-(1,1,1,2,3,3,3-heptafluoropropan-2-yl)-2,6-dimethylphenyl]-1H-pyrazol-4-yl}nicotinamide] |
| 5.2 |  | Cc1cc(C(F)(C(F)(F)F)C(F)(F)F)cc(C)c1-n1cc(I)cn1 [1-[4-(1,1,1,2,3,3,3-heptafluoropropan-2-yl)-2,6-dimethylphenyl]-4-iodo-1H-pyrazole] |
| 4.25 |  | O=C(NC1CC1)c1cc(-c2cnn(-c3c(Br)cc(C(F)(C(F)(F)F)C(F)(F)F)cc3OC(F)(F)F)c2)cnc1Cl [5-{1-[2-Bromo-4-(1,1,1,2,3,3,3-heptafluoropropan-2-yl)-6-(trifluoromethoxy)phenyl]-1H-pyrazol-4-yl}-2-chloro-N-cyclopropylnicotinamide] |
